Source: patent US12018023B2 (NERVIANO MEDICAL SCIENCES S.R.L., priority 2018, dated 2024)

How the values were obtained:
Assay type in all cases: biochemical
[1] = molecular target: T1, IDH1^R132H homodimer enzyme (Homo sapiens, UniProt O75874, R132H); experiment: NADPH depletion assay, IDH1 R132H
T1 construct: purchased not specified
Summary of the method: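 IDH1 R132H enzyme (8 nM as diluted) in Tris-HCl pH 7.6 with 10 mM MgCl2, 0.001% Triton X-100 and 4 mM β-mercaptoethanol is preincubated 15 min at RT with compound. Substrate mix (12 uM NADPH, 3.4 mM α-ketoglutarate) is added for 60 min; remaining NAD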

IDH1^R132C = molecular target: T2, IDH1^R132C (Homo sapiens, UniProt O75874, R132C); experiment: NADPH depletion assay, IDH1 R132C
T2 construct: purchased not specified
Summary of the method: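 Fluorescence readout (Ex544/Em590) of NADPH left after diaphorase/resazurin addition. Alpha-ketoglutarate 0.14 mM final, enzyme 2 nM final; compound preincubation 15 min, then 60 min reaction, both at room temperature, pH 7.6 Tris buffer.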

IDH2^R172K = molecular target: T3, IDH2^R172K (Homo sapiens, UniProt P48735, R172K); experiment: NADPH depletion assay, IDH2 R172K
T3 construct: purchased not specified
T3 sequence (P48735 40-452 R172K): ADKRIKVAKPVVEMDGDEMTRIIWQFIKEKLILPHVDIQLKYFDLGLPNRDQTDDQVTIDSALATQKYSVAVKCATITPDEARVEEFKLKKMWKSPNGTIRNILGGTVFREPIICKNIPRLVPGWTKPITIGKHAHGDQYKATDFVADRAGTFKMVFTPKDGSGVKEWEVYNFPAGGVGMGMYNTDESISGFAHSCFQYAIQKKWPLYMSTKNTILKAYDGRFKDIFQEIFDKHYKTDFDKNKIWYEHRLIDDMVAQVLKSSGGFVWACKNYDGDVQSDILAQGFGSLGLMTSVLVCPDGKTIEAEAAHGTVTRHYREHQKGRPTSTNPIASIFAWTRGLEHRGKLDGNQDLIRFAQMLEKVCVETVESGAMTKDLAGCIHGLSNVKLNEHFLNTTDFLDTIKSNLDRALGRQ
Description: IDH mutated enzyme activity converting alpha-ketoglutarate to 2-hydroxyglutaric acid is measured using a NADPH depletion assay. In the assay the remaining cofactor is measured at the end of the reaction with the addition of a catalytic excess of diaphorase and resazurin, to generate a fluorescent signal in proportion to the amount of NADPH remaining. IDH1 WT enzyme as well as mutated isoforms IDH1^R132H, IDH1^R132C, and IDH^2R172K enzymes are commercially available proteins (see e.g. Sino Biological, Abcam, Active Motif or Creative BioMart).
IDH1^R132H homodimer enzyme are diluted to 8 nM, in 10 μL of Assay Buffer (150 mM NaCl, 50 mM Tris-HCl pH 7.6, 10 mM MgCl2, 0.001% Triton X-100, 4 mM β-mercaptoethanol); 0.2 uL of test compound, previously serially diluted 1 to 3, >10 experimental points from 1 mM in DMSO, is added and the mixture is incubated for 15 minutes at room temperature. The reaction is started with the addition of 10 μL of Substrate Mix (12 uM NADPH, 3.4 mM alpha-ketoglutarate in Assay Buffer) and the mixture is incubated for 60 minutes at room temperature. The reaction is terminated with the addition of 5 μl of Detection Buffer (100 μg/mL diaphorase, 30 μM resazurin, in IX Assay Buffer), and is incubated for 15 minute before reading on a ViewLux as platereader at Ex544/Em590.
Compounds are assayed for their activity against IDH2^R172K following the same assay as above with the following modifications: IDH2^R172K and alpha-ketoglutarate final concentrations in the Assay Buffer is 16 nM and 0.55 mM, respectively.

T1 sequence (O75874 whole entry R132H): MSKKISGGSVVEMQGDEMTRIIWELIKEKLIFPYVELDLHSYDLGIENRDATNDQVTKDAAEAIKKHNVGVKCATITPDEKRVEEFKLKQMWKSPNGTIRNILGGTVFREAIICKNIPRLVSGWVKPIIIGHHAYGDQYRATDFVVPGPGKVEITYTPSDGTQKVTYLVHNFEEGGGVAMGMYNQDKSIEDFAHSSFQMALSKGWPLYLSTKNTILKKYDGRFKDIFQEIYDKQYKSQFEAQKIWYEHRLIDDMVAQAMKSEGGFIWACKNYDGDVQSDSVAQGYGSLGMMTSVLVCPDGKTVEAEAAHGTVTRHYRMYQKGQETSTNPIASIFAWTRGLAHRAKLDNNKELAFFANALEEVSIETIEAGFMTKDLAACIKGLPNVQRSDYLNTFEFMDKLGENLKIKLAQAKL
T2 sequence (O75874 whole entry R132C): as the sequence (O75874 whole entry R132H) above, with H132C counted along it

Compound | IC50 [1] [nM] | IC50 (IDH1^R132C) [nM] | IC50 (IDH2^R172K) [nM]
CC(C)Cn1c(=O)ccc2cnc(N[C@@H](C)c3ccc(Cl)cc3)nc21 [cpd 19, 2-{[(1S)-1-(4-chlorophenyl)ethyl]amino}-8-(2-methylpropyl)pyrido[2,3-d]pyrimidin-7(8H)-one] | 410 | 203 | 6680
C[C@H](Nc1ncc2ccc(=O)n(Cc3ccccc3F)c2n1)c1ccc(Cl)cc1 [cpd 22, 2-{[(1S)-1-(4-chlorophenyl)ethyl]amino}-8-(2-fluorobenzyl)pyrido[2,3-d]pyrimidin-7(8H)-one] | 451 | 195 | 2990
CCC(C)n1c(=O)ccc2cnc(N[C@@H](C)c3ccc(CN4CCCC(F)(F)C4)cc3)nc21 (stereo partly drawn) [cpd 61, 8-(butan-2-yl)-2-{[(1S)-1-{4-[(3,3-difluoropiperidin-1-yl)methyl]phenyl}ethyl]amino}pyrido[2,3-d]pyrimidin-7(8H)-one] | 71 | 38 | 5020
C[C@H](Nc1ncc2ccc(=O)n(CC3CC3)c2n1)c1ccc(Cl)cc1 [cpd 20, 2-{[(1S)-1-(4-chlorophenyl)ethyl]amino}-8-(cyclopropylmethyl)pyrido[2,3-d]pyrimidin-7(8H)-one] | 740 | 332 | 5020
COC(=O)c1ccc([C@H](C)Nc2ncc3ccc(=O)n(Cc4ccc(F)cc4)c3n2)cc1 [cpd 6, methyl 4-[(1S)-1-{[8-(4-fluorobenzyl)-7-oxo-pyrido[2,3-d]pyrimidin-2-yl]amino}ethyl]benzoate] | 3340 | 1340 | 6650
C[C@H](Nc1ncc2ccc(=O)n(Cc3ccc(F)cc3)c2n1)c1ccc(Cl)cc1 [cpd 28, 2-{[(1S)-1-(4-chlorophenyl)ethyl]amino}-8-(4-fluorobenzyl)pyrido[2,3-d]pyrimidin-7(8H)-one] | 1480 | 590 | 2510
CC(Nc1ncc2ccc(=O)n(Cc3c(F)cccc3F)c2n1)c1ccc(CN2CCC(F)(F)CC2)cc1 (stereo not drawn) [cpd 98, 8-(2,6-difluorobenzyl)-2-[(1-{4-[(4,4-difluoropiperidin-1-yl)methyl]phenyl}ethyl)amino]pyrido[2,3-d]pyrimidin-7(8H)-one] | 366 | 217 | 5340
C[C@H](Nc1ncc2ccc(=O)n(Cc3ccc(C#N)cc3)c2n1)c1ccc(Cl)cc1 [cpd 27, 4-{[2-{[(1S)-1-(4-chlorophenyl)ethyl]amino}-7-oxopyrido[2,3-d]pyrimidin-8(7H)-yl]methyl}benzonitrile] | 1070 | 336 | 2600
C[C@H](Nc1ncc2ccc(=O)n(Cc3ccccc3)c2n1)c1ccc(Cl)cc1 [cpd 16, 8-benzyl-2-{[(1S)-1-(4-chlorophenyl)ethyl]amino}pyrido[2,3-d]pyrimidin-7(8H)-one] | 1000 | 460 | 2700
C[C@H](Nc1ncc2ccc(=O)n(Cc3ccc(F)c(F)c3)c2n1)c1ccc(Cl)cc1 [cpd 23, 2-{[(1S)-1-(4-chlorophenyl)ethyl]amino}-8-(3,4-difluorobenzyl)pyrido[2,3-d]pyrimidin-7(8H)-one] | 2090 | 891 | 3490
C[C@H](Nc1ncc2ccc(=O)n(CC(C)(C)CO)c2n1)c1ccc(Br)cc1 [cpd 35, 2-{[(1S)-1-(4-bromophenyl)ethyl]amino}-8-(3-hydroxy-2,2-dimethylpropyl)pyrido[2,3-d]pyrimidin-7(8H)-one] | 211 |  | 5050
C[C@H](Nc1ncc2ccc(=O)n(Cc3c(F)cccc3F)c2n1)c1ccc(C(=O)NC2CCN(C)CC2)cc1 [cpd 76, 4-[(1S)-1-{[8-(2,6-difluorobenzyl)-7-oxo-pyrido[2,3-d]pyrimidin-2-yl]amino}ethyl]-N-(1-methylpiperidin-4-yl)benzamide] | 2380 | 3630 | 
C[C@H](Nc1ncc2ccc(=O)n(CC(C)(C)C)c2n1)c1ccc(C(=O)NC2CCCCC2)cc1 [cpd 81, N-cyclohexyl-4-[(1S)-1-{[8-(2,2-dimethylpropyl)-7-oxo-pyrido[2,3-d]pyrimidin-2-yl]amino}ethyl] benzamide] | 288 | 172 | 
C[C@H](Nc1ncc2ccc(=O)n(CC3(C)COC3)c2n1)c1ccc2ccccc2c1 [cpd 45, 8-[(3-methyloxetan-3-yl)methyl]-2-{[(1S)-1-(naphthalen-2-yl)ethyl]amino}pyrido[2,3-d]pyrimidin-7(8H)-one] | 554 | 206 | 
CC(C#N)n1c(=O)ccc2cnc(N[C@@H](C)c3ccc(CN4CCCC(F)(F)C4)cc3)nc21 (stereo partly drawn) [cpd 64, 2-[2-{[(1S)-1-{4-[(3,3-difluoropiperidin-1-yl)methyl]phenyl}ethyl]amino}-7-oxopyrido[2,3-d]pyrimidin-8(7H)-yl]propanenitrile] | 210 | 133 | 

The remaining lines, values ahead:

IC50 [1] [nM] | IC50 (IDH1^R132C) [nM] | IC50 (IDH2^R172K) [nM] | Compound
199 | 79 | 5380 | C[C@H](Nc1ncc2ccc(=O)n(CC(C)(C)C)c2n1)c1ccc(OC2CCN(C(=O)OC(C)(C)C)CC2)cc1 [cpd 154, 4-(4-{(S)-1-[8-(2,2-Dimethyl-propyl)-7-oxo-7,8-dihydro-pyrido[2,3-d]pyrimidin-2-ylamino]-ethyl}-phenoxy)-piperidine-1-carboxylic acid tert-butyl ester]
179 | 56 | 3590 | CC(C)[C@H](C)n1c(=O)ccc2cnc(N[C@@H](C)c3cc4cc(Cl)ccc4[nH]c3=O)nc21 [cpd 172, 2-{[(1S)-1-(6-chloro-2-oxo-1,2-dihydroquinolin-3-yl)ethyl]amino}-8-[(2S)-3-methylbutan-2-yl]pyrido[2,3-d]pyrimidin-7(8H)-one]
123 | 63 | 2350 | C=CC(=O)N1CCN(c2ccc([C@H](C)Nc3ncc4ccc(=O)n([C@@H](C)C(C)C)c4n3)cc2F)CC1 [cpd 179, 2-({(1S)-1-[4-(4-acryloylpiperazin-1-yl)-3-fluorophenyl]ethyl}amino)-8-[(2S)-3-methylbutan-2-yl]pyrido[2,3-d]pyrimidin-7(8H)-one]
128 | 48 | 5110 | C[C@H](Nc1cc2c(ccc(=O)n2CC(C)(C)C)cn1)c1ccc(CN2CCCC(F)(F)C2)cc1 [cpd 235, 7-{(S)-1-[4-(3,3-Difluoro-piperidin-1-ylmethyl)-phenyl]-ethylamino}-1-(2,2-dimethyl-propyl)-1H-[1,6]naphthyridin-2-one]
68 | 31 |  | CC(C)C(=O)N1CCC(Oc2ccc([C@H](C)Nc3ncc4ccc(=O)n([C@@H](C)C(C)C)c4n3)cc2)CC1 [cpd 160, 8-((S)-1,2-Dimethyl-propyl)-2-{(S)-1-[4-(1-isobutyryl-piperidin-4-yloxy)-phenyl]-ethylamino}-8H-pyrido[2,3-d]pyrimidin-7-one]
420 | 173 |  | C=CC(=O)N1CCN(Cc2ccc([C@H](C)Nc3nc(OCC)c4ccc(=O)n(CC(C)(C)C)c4n3)cc2)CC1 [cpd 201, 2-{[(1S)-1-{4-[(4-acryloylpiperazin-1-yl)methyl]phenyl}ethyl]amino}-8-(2,2-dimethylpropyl)-4-ethoxypyrido[2,3-d]pyrimidin-7(8H)-one]
103 | 61 |  | C=CC(=O)N1CCN(Cc2ccc([C@H](C)Nc3ncc4ccc(=O)n(CCN=[N+]=[N-])c4n3)cc2)CC1 [cpd 182, 2-{[(1S)-1-{4-[(4-acryloylpiperazin-1-yl)methyl]phenyl}ethyl]amino}-8-(2-azidoethyl)pyrido[2,3-d]pyrimidin-7(8H)-one]
672 | 825 |  | C[C@H](Nc1ncc2ccc(=O)n(Cc3ccc(F)cc3C(F)(F)F)c2n1)c1ccc(CN2CCC(F)(F)CC2)cc1 [cpd 115, 2-{[(1S)-1-{4-[(4,4-difluoropiperidin-1-yl)methyl]phenyl}ethyl]amino}-8-[4-fluoro-2-(trifluoromethyl)benzyl]pyrido[2,3-d]pyrimidin-7(8H)-one]
